pIC50: −log10 of the molar value. “Also recorded” adds a separate entry of the source.
Tests used:
AR = biological target: T1, AR (Homo sapiens, UniProt P10275); test: ARE-luciferase reporter assay in LNCaP cells (DHT-induced); type: cell-based; conditions: 1 nM DHT, 24 h, normalized to cell viability, read-out: LNCaP ARE-luc IC50
T1 sequence (P10275 1-920 T878A): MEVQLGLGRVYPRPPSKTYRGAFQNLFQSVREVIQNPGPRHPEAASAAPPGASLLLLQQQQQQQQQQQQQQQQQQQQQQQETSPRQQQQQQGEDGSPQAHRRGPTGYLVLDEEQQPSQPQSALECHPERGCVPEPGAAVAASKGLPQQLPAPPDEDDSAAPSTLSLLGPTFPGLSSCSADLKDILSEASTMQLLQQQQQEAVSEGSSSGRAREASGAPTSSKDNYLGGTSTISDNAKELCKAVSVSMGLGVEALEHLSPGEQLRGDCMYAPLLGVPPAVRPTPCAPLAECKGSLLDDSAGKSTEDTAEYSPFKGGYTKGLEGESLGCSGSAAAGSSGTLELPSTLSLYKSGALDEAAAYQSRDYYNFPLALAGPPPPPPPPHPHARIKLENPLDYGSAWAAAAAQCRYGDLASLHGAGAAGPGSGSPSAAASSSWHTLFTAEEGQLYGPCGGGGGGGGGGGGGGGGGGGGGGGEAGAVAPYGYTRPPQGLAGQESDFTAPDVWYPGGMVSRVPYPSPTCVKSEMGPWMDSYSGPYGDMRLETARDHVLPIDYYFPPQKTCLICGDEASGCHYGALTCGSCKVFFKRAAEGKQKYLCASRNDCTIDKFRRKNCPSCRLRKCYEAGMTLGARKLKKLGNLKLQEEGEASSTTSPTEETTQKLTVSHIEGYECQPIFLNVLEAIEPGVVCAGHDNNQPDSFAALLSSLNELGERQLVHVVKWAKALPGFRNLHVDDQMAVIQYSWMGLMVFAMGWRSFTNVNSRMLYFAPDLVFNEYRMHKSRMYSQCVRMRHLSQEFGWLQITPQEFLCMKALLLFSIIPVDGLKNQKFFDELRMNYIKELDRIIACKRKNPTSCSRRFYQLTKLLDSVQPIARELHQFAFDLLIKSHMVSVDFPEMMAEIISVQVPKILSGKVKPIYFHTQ
Method: (§1) The ARE-luciferase reporter plasmid contains functional AREs (androgen response elements) to which AR binds in response to androgen to induce luciferase activity. LNCaP (Cobioer) cells were transiently transfected with the ARE-luciferase reporter in charcoal stripped FBS/phenol red-free RPMI medium prior to treatment for 24 hours. Then DMSO or test compounds with serial diluted concentrations were added one hour prior to the addition of DHT(1 nM). After 24 h of incubation with DHT, cells were lysed and luciferase activity was assayed using the ONE-Glo™ Luciferase Assay System (Promega) and measured using EnVision Multimode Plate Reader, according to manufacturer's instructions. Values were normalized to cell viability determined by CellTiter-Glo® Luminescent Cell Viability Assay Kit (Promega). […] GraphPad Prism graphing software was used to calculate IC50 values.

LNCaP cells = test: Cell proliferation assay (CellTiter-Glo), LNCaP; type: cell-based; conditions: Homo sapiens, 96 h, 0.2 nM DHT, 4 days, read-out: LNCaP IC50 AR-positive (cell proliferation)
Method: (§2) To evaluate the effect of exemplary compounds on proliferation of AR/AR-V7-dependent prostate cancer cells, cell viability assay was performed in LNCaP (AR-positive), 22Rv1 (AR-positive; AR-V7 positive), VCaP (AR-positive; AR-V7 positive), and DU145 (AR-negative) cells, respectively.
(§3) LNCaP cells were seeded in charcoal stripped FBS/phenol red-free RPMI medium in 96-well plates for 24 h before pretreating for 1 h with test compounds prior to addition of 0.2 nM DHT for 4 days. 22Rv1 or VCaP cells were cultured in charcoal stripped FBS/phenol red-free RPMI medium for 24 h before addition of test compounds for 4 days. DU145 cells were seeded in complete medium for 24 h before addition of test compounds for 4 days. Cell proliferation was measured with CellTiter-Glo® Luminescent Cell Viability Assay (Promega). In LNCaP cells, DHT-dependent cell growth is calculated by measuring the difference between vehicle control (DMSO) cells treated with or without 0.2 nM DHT. The IC50 values were determined using the four parameter fit via GraphPad Prism graphing software.

22Rv1 cells = test: Cell proliferation assay (CellTiter-Glo), 22Rv1; type: cell-based; conditions: Homo sapiens, 22Rv1, 96 h; 4 days; read-out: 22Rv1 IC50 AR-positive; AR-V7 positive (cell proliferation)
Method: as §2, §3

VCaP cells = test: Cell proliferation assay (CellTiter-Glo), VCaP; type: cell-based; conditions: Homo sapiens, 96 h, 4 days, read-out: VCaP IC50 AR-positive, AR-V7 positive (cell proliferation)
Method: as §2, §3

DU145 cells = test: Cell proliferation assay (CellTiter-Glo), DU145; type: cell-based; conditions: Homo sapiens, DU-145, 96 h; 4 days; read-out: DU145 IC50 AR-negative (cell proliferation)
Method: as §2, §3

[1] = system: AR or AR-V7 downstream target genes; test: AR/AR-V7 target gene qPCR assay in 22Rv1 cells; type: cell-based, human; conditions: 22Rv1, 48 h, RT-qPCR
Method: To evaluate the effect of exemplary compounds on mRNA expression of AR or AR-V7 downstream target genes, real-time quantitative PCR measurements were performed in prostate cancer cell line 22Rv1 expressing both AR and AR-V7.
22Rv1 cells were cultured in charcoal stripped FBS/phenol red-free RPMI medium for 24 h, and then treated with DMSO or test compounds for additional 48 h prior to RT-qPCR. Briefly, RNA was isolated from cells using RNeasy Mini Kit (Qiagen) following the manufacturer's protocol. RNA was reverse transcribed and subjected to qPCR using PowerUp™ SYBR™ Green Master Mix (Applied Biosystems). The relative quantity of the target genes was calculated using the ΔΔCt method by comparing Ct of the target genes and mean Ct of the housekeeping gene GAPDH.

AR V7 [2] = biological target: T2, AR V7 (Homo sapiens, UniProt P10275); test: ARE-luciferase reporter assay in HEK293T cells cotransfected with AR-V7; type: cell-based; parameters: host or cells: HEK293T; conditions: HEK293T cotransfected with AR-V7, hormone-starved, 24 h; read-out: HEK293T(V7) ARE-luc IC50
T2 sequence (P10275 1-644 isoform P10275-3): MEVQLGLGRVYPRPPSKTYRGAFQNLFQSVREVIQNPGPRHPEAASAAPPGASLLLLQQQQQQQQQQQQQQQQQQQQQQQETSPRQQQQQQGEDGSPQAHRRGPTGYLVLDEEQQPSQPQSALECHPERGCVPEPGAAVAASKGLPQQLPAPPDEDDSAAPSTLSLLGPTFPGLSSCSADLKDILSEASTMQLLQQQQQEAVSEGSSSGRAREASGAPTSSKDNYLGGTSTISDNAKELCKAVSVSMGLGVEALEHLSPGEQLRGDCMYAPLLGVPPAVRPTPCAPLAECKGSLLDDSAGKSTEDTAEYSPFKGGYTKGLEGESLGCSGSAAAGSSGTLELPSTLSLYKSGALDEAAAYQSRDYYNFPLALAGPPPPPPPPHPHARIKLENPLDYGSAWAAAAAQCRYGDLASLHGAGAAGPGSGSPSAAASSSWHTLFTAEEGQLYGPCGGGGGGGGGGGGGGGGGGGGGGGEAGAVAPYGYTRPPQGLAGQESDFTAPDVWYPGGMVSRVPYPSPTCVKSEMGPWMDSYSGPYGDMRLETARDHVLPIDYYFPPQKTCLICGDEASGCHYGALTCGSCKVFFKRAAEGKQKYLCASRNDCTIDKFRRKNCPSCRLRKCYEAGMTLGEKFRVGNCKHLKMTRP
Method: as §1
(§4) To evaluate the transcriptional activity of AR-V7, HEK293T(Cobioer) cells were transiently cotransfected with an expression vector for AR-V7 and the ARE-luciferase reporter in hormone-starved conditions. For 22Rv1(Cobioer) prostate cancer cell line, which expresses endogenous AR-V7, ARE-luciferase reporter was transiently transfected in hormone-starved conditions. 24 h after transfection, DMSO or test compounds with serial diluted concentrations were added for additional 24 h incubation. Reporter activity was detected and normalized by cell viability as described above. Treatments were normalized to DMSO control activity, and IC50 values were further determined via GraphPad Prism graphing software.

AR V7 [3] = biological target: T2, AR V7; test: ARE-luciferase reporter assay in 22Rv1 cells (endogenous AR-V7); type: cell-based; parameters: 22Rv1(Cobioer) prostate cancer cell line, which expresses endogenous AR-V7; host or cells: 22Rv1; conditions: 22Rv1, hormone-starved, 24 h; read-out: 22Rv1 ARE-luc IC50
Method: as §1, §4

[4] = system: AF-1 recombinant protein (human AR-NTD); test: AF-1 STD NMR binding assay; conditions: 25 μM AF-1, 250 μM compound
Method: Binding of the exemplary compounds to human AR-NTD was performed using STD […] Nuclear Magnetic Resonance (STD NMR) analysis with purified AF-1 recombinant protein.
Binding of the exemplary compounds to human AR-NTD was performed using STD […] Nuclear Magnetic Resonance (STD NMR) analysis with purified Tau-5AF-1 recombinant protein. All NMR spectroscopy experiments were performed on a Bruker Avance III 600 MHz spectrometer. NMR samples contain 25 μM AF-1 and 250 μM compound, and were diluted by PBS (pH 7.4, 60% D20) buffer to 500 μL. For the STD experiments, the standard Bruker stddiffgp19.3 pulse sequence was used with a saturation time of 2 s and a spectral width of 16 ppm with 128 scans. The on-resonance frequency was set to −0.4 ppm, while the off-resonance frequency was set to 33 ppm. Appropriate blank experiments, in the absence of protein or compound, were performed to test the lack of direct saturation to the compound protons.

| pIC50 (LNCaP cells) | pIC50 (22Rv1 cells) | pIC50 (VCaP cells) | pIC50 (DU145 cells) | pIC50 (AR V7 [2]) | pIC50 (AR V7 [3]) | SMILES | pIC50 (AR) | mRNA expression of target genes of either AR or AR-V7 [1] | binding to AF-1 (STD difference spectrum) [4] |
| --- | --- | --- | --- | --- | --- | --- | --- | --- | --- |
| 6.28 | 5.56 | 5.06 | < 4.70 | 5.64 | 5.36 | CC(C)(c1ccc(OCc2ccnc(N=S3(=O)CCCC3)n2)cc1)c1cc(Cl)c(OCCCl)c(C#N)c1 [Compound 2, 3-chloro-2-(2-chloroethoxy)-5-(2-(4-((2-((1-oxidotetrahydro-1λ^6-thiophen-1-ylidene)amino)pyrimidin-4-yl)methoxy)phenyl)propan-2-yl) benzonitrile] | 5.55 | inhibited mRNA expression |  |
|  |  |  |  |  |  | CC(C)(c1ccc(OCc2ccnc(N=S3(=O)CCNCC3)n2)cc1)c1cc(Cl)c(OCCO)c(C#N)c1 [Compound 62, 3-chloro-2-(2-hydroxyethoxy)-5-(2-(4-((2-((1-oxido-1λ^6-thiomorpholin-1-ylidene)amino)pyrimidin-4-yl)methoxy)phenyl)propan-2-yl)benzonitrile] |  |  | confirmed the binding; also recorded: binds to AF-1 |

— patent publication US20240150301A1, “METHODS OF MODULATING ANDROGEN RECEPTOR CONDENSATES” (ETERN BIOPHARMA (SHANGHAI) CO., LTD., priority 2021, published 2024)
